Laboratory results taken from US20240415804A1, “METHOD OF TREATING PANCREATIC CANCER” (University of South Florida, priority 2022, published 2024).

Experiments:
[1] = tested on: MiaPaCa-2 cells; experiment: MTT cell viability assay, MiaPaCa-2; type: cell-based, human; conditions: API 40 μM, 24 h, vs DMSO vehicle
Description: The methyl thiazol tetrazolium (MTT) assay was performed as described previously^58. Briefly, MiaPaCa-2, Panc02 and UN-KC-6141 cells were seeded in 96-well plates at a density of 3000 cells/well and allowed to attach overnight. PC cells were then treated with API (40 μM) or DMSO (1%) as vehicle control for 24 h at 37° C. in 5% CO2 incubator. After 24 h, media was replaced with 20 μL of MTT (1 mg/mL) (Sigma-Aldrich) and incubated for 3 h at 37° C. in 5% CO2. MTT was replaced with DMSO, and absorbance was read at 570 nm.
MiaPaCa-2, Panc02 and UN-KC-6141 cells (2×10^5) were grown in 2 mL of growth medium in a 6-well tissue culture plate for 18-24 h until 60-80% confluency. The following solutions were prepared: Solution A) For each transfection, diluted 1 μL of miRNA-155 inhibitors (1 μM) (Table 2) or scrambled negative control miRNA (1 μM) (Qiagen, Germantown, MD, USA) into 50 μL Opti-MEM Transfection Medium (Invitrogen, Waltham, MA, USA). Solution B) For each transfection, diluted 3 μL of Hi-Perfect Transfection Reagent into 50 μL Opti-MEM Transfection Medium. Solution A was added directly to Solution B, mixed gently and the mixture incubated for 10-15 min at room temperature. […]

[2] = tested on: Bcl-2; experiment: Western blot of Bcl-2 protein in UN-KC-6141 cells; type: cell-based, mouse; conditions: API 40 μM
Description: Single-cell suspensions of BM, digested pancreatic tumors cells and UN-KC-6141 cells treated with API (40 μM) were lysed with radioimmunoprecipitation buffer (Sigma-Aldrich), quantified with a BCA Protein Assay kit (Thermo Fisher Scientific, Waltham, MA, USA), resolved by SDS-PAGE (Thermo Fisher Scientific) and transferred onto a nitrocellulose membrane as previously described. Membranes were probed with either anti-SHIP-1 (Santa Cruz Biotechnology, Dallas, TX, USA), anti-iNOS (Cell Signaling Technology) or anti-Bcl-2 (Cell Signaling Technology, Danvers, MA, USA), all at a dilution of 1:1000. All blots were re-probed with a housekeeping protein, HRP-conjugated anti-β-actin (Sigma-Aldrich), at a dilution of 1:20,000. Membranes were then probed with the respective secondary anti-mouse or rabbit IgG HRP-conjugated antibodies (1:1000) of SHIP-1 and iNOS. Detection of SHIP-1, iNOS and β-actin proteins was performed using Super Signal West Pico or Femto Chemiluminescent Substrates (Thermo Fisher Scientific) and then imaged on a Bio-Rad Chemi Doc XRS Imaging System. Normalized densitometric ratios (divided by β-actin) were determined by quantifying WB results using Image J.

[3] = tested on: CD8+ T cells and MHC-II+ cells; experiment: AKOYA-CODEX imaging of tumor sections of KC-HPC mice; type: in vivo, mouse
Source text: Next, the inventors examined the expression and infiltration of CD8^+ T cells and MHC-II^+ cells in the tumor sections of KC-HPC treated with vehicle or API and using AKOYA-CODEX which provides spatial capture of location and phenotype for multiple immune cells in the tumor. […] The inventors then observed, via 2D tSNE, increased CD8^+ T cell expression partially located within the tumor plots for the tumors of KC-HPC-API mice compared with vehicle treated KC-HPC mice (FIG. 15B). The poly-1-lysine coated coverslips containing 5-μm of Fresh Frozen (FF) tissue sections were stored at […] until use. At the staining time, FF tissue sections were baked for 30 min to 1 h at 55° C. According to Akoya Biosciences protocol, the FF tissues were dewaxed, deparaffinized in xylene then rehydrated in descending ethanol concentrations (100% twice, 90%, 70%, 50%, and 30%, respectively) and washed in ddH2O twice, each step for 5 min. Heat-induced epitope retrieval with antigen retrieval solution, pH 6, was performed using the pressure cooker at high-pressure protocol ([…]) for 20 min. After cooling at room temperature (RT) for 30 min to 1 h, the coverslips were washed in ddH2O twice for 2 min. […] The processed data were analyzed using the CODEX-MAV plugin in Image J. Then, nuclei segmentation was performed, followed by gating and clustering of the CD8+ T cells populations. […]

## O=c1cc(-c2ccc(O)cc2)oc2cc(O)cc(O)c12 [API, 40,5,7-Trihydroxyflavone, 5,7-Dihydroxy-2-(4-hydroxyphenyl)-4-benzopyrone]
[1]
  cell viability (MTT): significantly inhibited
[2]
  Bcl-2 protein expression (WB): significant decrease
[3]; API treated KC-HPC mice, non-detectable in KC-HPC mice
  MHC-II+ cells in tumor sections (2D UMAP): increase
[3]; KC-HPC-API vs vehicle treated KC-HPC mice
  CD8+ T cell expression in tumor sections (2D tSNE): increased
